Results as given in article PMC4942819 (Scientific Reports, 2016).
≈ marks a conversion by molar mass, not a printed value. Where “and” joins values, the source holds several entries; their conditions need not be identical. Equal entries are not always repeated. Where two headings read alike, the source gives them in different places.

Experiments:
[1] = molecular target: CYP2C19 (Homo sapiens, UniProt P33261); assay: CYP inhibition; format: in vitro ADME; settings: read-out: CYP inhibition IC50, CYP2C19
Procedure: (§1) The In vitro ADME/T assays were conducted at WuXi AppTec Co. Ltd.(Shanghai). ClogP was calculated with ChemDraw Ultra 14.0. In the study of bi-directional permeability across MDR1-MDCKII cell monolayer, permeability was correlated with the apparent permeability coefficient Papp (cm/s), which was interpreted as follows: Low permeability( Papp ≤ 1.0×10^-6 cm/s), Moderate permeability(1.0×10^-6 < Papp < 5.5×10^-6 cm/s) or High permeability( Papp ≥ 5.5×10^-6 cm/s). ^aaqueous solubility at room temperature.

[2] = molecular target: CYP2C9 (Homo sapiens, UniProt P11712); assay: CYP inhibition; format: in vitro ADME; settings: read-out: CYP inhibition IC50, CYP2C9
Procedure: as §1

[3] = molecular target: CYP3A4 (Homo sapiens, UniProt P08684); assay: CYP inhibition; format: in vitro ADME; settings: read-out: CYP inhibition IC50, CYP3A4
Procedure: as §1

[4] = molecular target: CYP2D6 (Homo sapiens, UniProt P10635); assay: CYP inhibition; format: in vitro ADME; settings: read-out: CYP inhibition IC50, CYP2D6
Procedure: as §1

[5] = tested on: Mycobacterium tuberculosis H37Rv; assay: microplate Alamar blue assay (MABA), MIC; format: cell-based; settings: replicating H37Rv
[6] = plasma protein binding; format: in vitro ADME; settings: mouse
Procedure: as §1

[7] = pharmacokinetic study in SD rats; format: in vivo; settings: female, rat, 5 mg/kg
Procedure: All animal experiments have been approved by the Institutional Animal Care and Treatment Committee of Sichuan University in China and were carried out in accordance with the approved guidelines. SPF female SD rats weighing 180–220 g were used in the pharmacokinetic study. The rats were fasted overnight before dosing. Every treatment group contain 3 rats. Rats were dosed with SKLB-TB1001 or BTZ043 suspension at 5 mg/kg (i.v. and p.o.). Compounds were dissolved in 5% DMSO/10% Solutol HS15 in saline for intravenous injection and suspended in 0.5% CMC for oral administration. Blood was collected from the jugular vein of each animal at the following times after administration of drugs: 0.083, 0.25, 0.5, 1, 2, 4, 6, 8 and 24 h after a single i.v. dosing; and 0.25, 0.5, 1, 2, 4, 6, 8 and 24 h after a single oral dosing. All blood samples were centrifuged at 3000 r/min for 10 min to obtain serum which was then stored at −20 °C. 150 μL of the serum was added to 500 μL of acetonitrile and the mixture was centrifuged at 13000 r/min for 10 min to remove protein. The supernatant was dried and dissolve in 100 μL of acetonitrile, the solution was centrifuged at 13000 r/min for 10 min. The supernatant was moved to a sample bottle for HPLC analysis. Total area under the concentration time curve (AUC), the elimination half-time (t1/2), the peak concentration (Cmax) and the time to reach peak concentration (Tmax) of samples were determined directly from the experimental data using WinNonlin V6.2.1.

[8] = tested on: Mycobacterium tuberculosis Erdman; assay: microplate Alamar blue assay (MABA), MIC; format: cell-based
[9] = tested on: Mycobacterium tuberculosis; design: method as in PMID 19299584; settings: cited from earlier work
[10] = tested on: J774A.1 cells; assay: cytotoxicity, MTT assay; format: cell-based; settings: Mus musculus, J774.A1
Procedure: (§2) The compounds were examined for toxicity (IC50) using MTT assay. Briefly, cells (3 ~ 5 × 10^3 cells/well) were seeded in a 96-well plate. After 24 h incubation, the cells were treated with various concentrations of drugs for 24, 48, 72 h, respectively. Columns one and two in the assay plates contained-media +0.1% DMSO for a negative control ,Then, 20 μl of a 5 mg/mL MTT solution was added to each well, and the plates were incubated for an additional 2~4 h at 37 °C. The medium was subsequently discarded, and DMSO 150 μL was added to dissolve the formazan. Oscillate 15 min, the OD 570 was measured using a Spectra MAX M5 microplate spectrophotometer (Molecular Devices, CA, USA), and the IC50 values were calculated.

[11] = tested on: A549 cells; assay: cytotoxicity, MTT assay; format: cell-based; settings: Homo sapiens
Procedure: as §2

[12] = tested on: Mycobacterium avium; assay: microdilution plate assay, MIC; format: cell-based
[13] = tested on: M. tuberculosis Erdman in J774A.1 cells; assay: macrophage assay, intracellular activity; format: cell-based, Mycobacterium tuberculosis
Procedure: As described previously, J774A.1 cells were grown in 75-cm2 cell culture flasks in 10% FBS in Dulbecco’s modified Eagle’s medium (DMEM) until confluency. The cells were detached using a cell scraper, and then centrifuged at 200 g for 5 min at room temperature. The cells were incubated at 37 °C under 5% CO2 for 16 h after distributing into 24-well plates containing coverslips. M. tuberculosis Erdman (ATCC 35801) were diluted to a final concentration of 1 × 10^5 to 3 × 10^5 CFU/mL with DMEM after thawing and sonicating from frozen cultures. And 500 ul of the dilution was dispensed to each well of a new 24-well plate. Followed by, J774A.1 cells on coverslips were infected by incubation with M. tuberculosis Erdman at 37 °C for 2 h. Coverslips were then washed with HBSS and transferred to new 24-well plates. The Cultures were treated in triplicate with compounds at 0.02 μM containing DMEM and incubated at 37 °C under 5% CO2 for 16 h. At D 0 (for untreated controls) and after 7 days of incubation, macrophage cells were lysed by addition of 200 μL of 0.25% sodium dodecyl sulfate. The plates were incubated at 37 °C for 10 min, and 200 μL of DMEM was added. The lysate was sampled using a microtube and sonicated for 15 s. Then 1:1, 1:10, 1:100, and 1:1,000 dilutions were plated on 7H11 agar plates and CFU counts determined after 2 to 3 weeks of incubation at 37 °C.

[14] = tested on: Mycobacterium tuberculosis H37Ra (ATCC 25177); assay: microplate Alamar Blue assay (MABA), MIC, H37Ra; format: cell-based
Procedure: (§3) Compound MIC was conducted by ShangHai Chempartner Co., Ltd (Shanghai, China) using the microplate Alamar Blue assay (MABA) against Mycobacterium tuberculosis H37Ra (ATCC 25177). Cytotoxicity of tested compounds was assessed on Vero cells.

[15] = aqueous solubility; format: physicochemical
Procedure: as §1

[16] = tested on: M. tuberculosis H37Rv; assay: MABA checkerboard synergy assay; format: cell-based, Mycobacterium tuberculosis
[17] = tested on: Vero cells; assay: cytotoxicity, MTT assay; format: cell-based; settings: Chlorocebus sabaeus
Procedure: as §2, §3

[18] = tested on: MDR1-MDCKII cell monolayer; assay: bi-directional permeability across MDR1-MDCKII cell monolayer; format: in vitro ADME; settings: dog, MDCK-MDR1
Procedure: as §1

[19] = tested on: M. tuberculosis Erdman; assay: in vivo acute M.tb Erdman infection mouse model; design: species or system Mycobacterium tuberculosis

Chain of CYP2C9 (P11712 whole entry): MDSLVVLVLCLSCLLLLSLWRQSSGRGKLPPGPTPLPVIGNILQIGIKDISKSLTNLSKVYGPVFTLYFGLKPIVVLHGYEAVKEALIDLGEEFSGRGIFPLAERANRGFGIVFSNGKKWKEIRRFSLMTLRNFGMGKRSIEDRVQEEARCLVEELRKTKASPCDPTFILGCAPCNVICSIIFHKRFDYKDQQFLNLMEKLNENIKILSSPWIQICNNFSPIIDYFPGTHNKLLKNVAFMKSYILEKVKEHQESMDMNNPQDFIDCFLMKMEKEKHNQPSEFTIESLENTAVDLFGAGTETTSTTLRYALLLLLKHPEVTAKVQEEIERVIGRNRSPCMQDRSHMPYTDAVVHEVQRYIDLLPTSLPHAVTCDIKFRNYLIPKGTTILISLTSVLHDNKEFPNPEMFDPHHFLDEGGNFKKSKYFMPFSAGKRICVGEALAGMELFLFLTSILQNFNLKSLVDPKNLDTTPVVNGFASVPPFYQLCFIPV
Chain of CYP2C19 (P33261 whole entry): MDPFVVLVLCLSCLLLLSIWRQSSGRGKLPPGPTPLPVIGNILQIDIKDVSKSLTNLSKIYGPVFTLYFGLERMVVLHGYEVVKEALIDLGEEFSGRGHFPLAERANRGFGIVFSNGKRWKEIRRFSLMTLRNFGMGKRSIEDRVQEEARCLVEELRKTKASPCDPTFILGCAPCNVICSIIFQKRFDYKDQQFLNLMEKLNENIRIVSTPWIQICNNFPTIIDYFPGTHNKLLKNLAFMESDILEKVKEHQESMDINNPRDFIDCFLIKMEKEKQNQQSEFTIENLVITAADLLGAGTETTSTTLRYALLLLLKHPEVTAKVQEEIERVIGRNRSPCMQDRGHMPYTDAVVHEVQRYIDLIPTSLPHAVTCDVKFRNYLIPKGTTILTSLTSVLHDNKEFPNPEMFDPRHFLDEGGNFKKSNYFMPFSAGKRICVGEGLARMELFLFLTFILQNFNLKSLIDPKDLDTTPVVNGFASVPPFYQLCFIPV
Chain of CYP3A4 (P08684 whole entry): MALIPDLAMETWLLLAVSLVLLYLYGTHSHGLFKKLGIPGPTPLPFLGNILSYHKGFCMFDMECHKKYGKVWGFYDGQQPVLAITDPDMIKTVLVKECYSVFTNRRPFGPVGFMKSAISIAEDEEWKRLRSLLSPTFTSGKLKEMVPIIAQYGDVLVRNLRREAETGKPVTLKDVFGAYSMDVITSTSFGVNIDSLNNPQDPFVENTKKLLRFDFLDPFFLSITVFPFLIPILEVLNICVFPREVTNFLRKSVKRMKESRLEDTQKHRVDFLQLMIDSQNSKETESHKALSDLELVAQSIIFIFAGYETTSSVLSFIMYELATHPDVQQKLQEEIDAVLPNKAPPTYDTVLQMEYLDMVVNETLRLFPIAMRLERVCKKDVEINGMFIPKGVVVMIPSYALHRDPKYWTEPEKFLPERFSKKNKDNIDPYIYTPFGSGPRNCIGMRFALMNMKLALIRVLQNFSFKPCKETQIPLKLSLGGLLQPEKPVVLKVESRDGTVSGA
Chain of CYP2D6 (P10635 whole entry): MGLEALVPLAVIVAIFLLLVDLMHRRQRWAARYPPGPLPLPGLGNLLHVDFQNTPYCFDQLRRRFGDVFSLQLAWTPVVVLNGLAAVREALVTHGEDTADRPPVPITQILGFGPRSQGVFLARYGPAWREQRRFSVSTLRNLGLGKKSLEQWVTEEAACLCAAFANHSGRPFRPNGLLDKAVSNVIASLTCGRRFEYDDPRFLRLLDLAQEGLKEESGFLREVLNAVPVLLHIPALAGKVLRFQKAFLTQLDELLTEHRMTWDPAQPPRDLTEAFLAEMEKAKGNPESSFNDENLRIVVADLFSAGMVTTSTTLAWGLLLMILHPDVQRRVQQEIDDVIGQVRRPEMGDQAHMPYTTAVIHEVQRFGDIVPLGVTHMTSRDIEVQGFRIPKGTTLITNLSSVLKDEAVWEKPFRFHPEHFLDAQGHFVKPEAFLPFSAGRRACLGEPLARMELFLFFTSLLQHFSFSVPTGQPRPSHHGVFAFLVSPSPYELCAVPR

C[C@H]1COC2(CCN(c3nc(=O)c4cc(C(F)(F)F)cc([N+](=O)[O-])c4s3)CC2)O1 [BTZ043]
IC50 [1]: > 10 µM | IC50 [2]: > 10 µM | IC50 [3]: > 10 µM | IC50 [4]: > 10 µM | MIC [5]: 0.02 µg/mL (≈ 0.0464 µM) | fraction unbound [6]: < 0.01 | bioavailability ([7]; SD, in vivo): 29.5% | AUC ([7]; SD, in vivo, po): 899 ng·h/mL | Cmax ([7]; SD, in vivo, po): 543 ng/mL | Tmax ([7]; SD, in vivo, po): 15 min | half-life ([7]; plasma, po, SD rats, terminal half-life for elimination): 73.2 min | MIC [8]: < 0.05 µg/mL | MIC [9]: 0.001 µg/mL (≈ 0.00232 µM) | IC50 [10]: 32 µg/mL (≈ 74.2 µM) | IC50 [11]: 25 µg/mL (≈ 58 µM) | MIC [12]: 32 µg/mL (≈ 74.2 µM) | Log10 CFU, intracellular Mtb Erdman ([13]; J774A.1 macrophages, 0.02 μM (Fig. 2 legend: 0.02 μg/mL), 7 days): 4.70 | Fold(log) reduction ([13]; decrease of log10 CFU between D7 and treatment group, J774A.1, 0.02 μM (Fig. 2 legend: 0.02 μg/mL)): 2.2 log and 2.15 log | MIC [14]: < 0.1 µM | Solubility [15]: <1 | MIC ([16]; Mycobacterium tuberculosis, H37RV, 336 h, checkerboard, drug alone, read-out: MIC against H37Rv, MIC alone): 0.011 µg/mL | MIC against H37Rv, MIC in combo. ([16]; in combination with RMP): 0.008 µg/mL | IC50 ([17]; Vero, cytotoxicity, read-out: IC50 Vero): > 100 µg/mL | IC50 ([17]; cytotoxicity on Vero cells, read-out: IC50): > 20 µM | Permeability (Mean Papp, MDR1) A to B [18]: 9.02 10^-6 cm/s | Permeability (Mean Papp, MDR1) B to A [18]: 7.17 10^-6 cm/s | efflux ratio [18]: 0.79 | activity in the acute Mtb Erdman infection mouse model ([19]; 150 mg/kg): not significantly active | Log10 CFU (SD), bacterial burden in mouse lungs ([19]; BALB/c mice, Day-36, 150 mg/kg oral daily from day 10): 6.31 (5.85)
